# Several values for one entry are separate records, joined by “and”; a condition that tells them apart may be missing. Equal values may be shown once. Read-outs that look alike come from different tables or passages of the source.
# Columns and labels:
# Type in all cases: cell-based
# HepG2 cells [1] = assay: Transwell migration assay (without Matrigel); conditions: HepG2, 24 h treatment, vs control
# Protocol: (§1) HepG2 cells were treated with either KJ-5 or KJ-12 for 24 h. Then, the cells were suspended and seeded into the upper chamber of a 24-well Transwell plate (Corning Inc., United States) in serum-free medium. The cells were cultured for 24 h at 37°C; a medium containing 20% FBS as a chemoattractant was added to the lower chamber. HepG2 cells that had invaded through the membrane were fixed with 4% paraformaldehyde for 20 min and stained with 0.1% crystal violet. Five random fields were then imaged and quantified using an inverted fluorescence microscope (Axio Observer3, Germany). To assess invasion, transwell assays were performed in a similar manner, with the exception of coating the upper chamber of the Transwell with 100 μL of diluted Matrigel solution per well.
# MCF-7 cells = assay: MTT assay for cell proliferation, MCF-7; parameters: key to Inhibitory rate / Inhibition rate: inhibition rate = 1 - mean A490 sample/mean A490 control (fraction); conditions: for inhibition at 16 µM: MCF7, preliminary screening, MCF-7, 16 μM, 48 h, mean±SD, read-out: Inhibition rate (16μM), 48 h, MCF-7
# Outline: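 Cells grown in DMEM with 10% FBS at 37 °C, 5% CO2, seeded at 10^5 cells/mL and exposed to KJ-5 or KJ-12 at 0–32 μM for 48 h. MTT added for 4 h, formazan dissolved in DMSO, A490 read; inhibition = (1 − sample/control A490) × 100%.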
# HepG2 cells [2] = assay: Cell cycle analysis (PI, flow cytometry); conditions: 24 h; for Percentage of cells in the S phase (change vs control): HepG2, 2-8 μM
# Protocol: HepG2 cells were seeded in a 6-well plate at a density of 5 × 10^6 cells/well and treated with either KJ-5 or KJ-12 at concentrations of 2, 4, or 8 μM for 24 h. Cells were then collected and responded in […] of cold PBS. Subsequently, 700 μL of cold 70% ethanol was added to the cells and gently mixed by inversion on ice for 1 h. Cells were then centrifuged at 2,000 rpm for 10 min, washed once with 2 mL of cold PBS, and the supernatant was discarded. The cell pellet was resuspended in 250 μL of cold PBS, followed by the addition of 10 μL of RNase at a final concentration of 0.4 mg/mL and incubated at 37°C for 30 min. An additional 250 μL of PBS was added, followed by the addition of 5 μL of PI solution at a final concentration of 10 μg/mL. The samples were incubated […] in the dark overnight at 4°C. Finally, the samples were analyzed by flow cytometry.
# p-H2AX in HepG2 cells = assay: H2AX phosphorylation by immunofluorescence and Western blotting; conditions: HepG2, 24 h
# Protocol: HepG2 cells were plated in laser confocal dishes (Nest, China), followed by the addition of KJ-5 or KJ-12 for 24 h. Then, 4% paraformaldehyde was added to each laser confocal dish for 20 min after rinsing with PBS. Before the goat serum was added to block for 1 h, 0.5% Triton X-100 was used to penetrate HepG2 for 30 min. Subsequently, the cells were incubated with p-H2AX (Cell Signaling Technology, MA, United States) at a 1:800 dilution at 4°C overnight. The cells were rinsed with PBS and incubated with Alexa Fluor 488 (Proteintech, Wuhan, China) at a 1:1000 dilution in dark at room temperature for 1 h. DAPI was used to stain the cell nucleus for 5 min. Then, the cells were rinsed with PBS before observing the cells under a laser confocal microscope (Nikon, Tokyo, Japan).
# After being pretreated with either KJ-5 or KJ-12 at concentrations of 2, 4, or 8 μM for 24 h, the cells were harvested and lysed using an ice-cold cell lysis buffer from Beyotime Biotechnology (Shanghai, China). The proteins were mixed with a loading buffer and denatured by heating at 95°C–100°C for 5–10 min. Equal amounts of protein were loaded onto a 10% SDS-PAGE gel along with a molecular weight marker and separated by electrophoresis for 2 h. The separated proteins were transferred onto a PVDF membrane, which was blocked with 5% non-fat milk for non-specific binding sites on the membrane. […]
# HepG2 cells [3] = assay: Transwell invasion assay (Matrigel); conditions: HepG2, 24 h treatment, vs control
# Protocol: as §1
# HepG2 cells [4] = assay: Annexin V-FITC/PI staining for cell apoptosis (flow cytometry); conditions: 24 h; for Proportion of apoptotic cells: Annexin-V/PI; for Cell apoptosis (in words): HepG2, 2, 4, 8 μM
# Protocol: HepG2 cells were plated in a 6-well plate at a density of 5 × 10^6 cells/well and incubated for 24 h. Then, the original culture medium was replaced with 2 mL DMEM containing KJ-5 or KJ-12 (2, 4, and 8 μM) and incubated for 24 h. After incubation with KJ-5 or KJ-12, the cells were washed with cold PBS and then resuspended in 100 µL binding buffer at a concentration of 1 × 10^6 cells/mL. Then, 5 μl of FITC Annexin V and 5 µl of PI were added to the solution. The cells were gently vortexed and incubated for 15 min at room temperature (25°C) in the dark. Subsequently, 400 µL binding buffer was added to each tube, and the samples were analyzed by flow cytometry (BD Accuri™ C6 Plus) within 1 h.
# [5] = Homo sapiens, MCF7, 48 h, MCF-7, 48 h, MTT, read-out: IC50 MCF-7
# [6] = Homo sapiens, MCF7, MCF-7, one of three experiments, unit inferred, read-out: IC50, single experiment, MCF-7
# [7] = MCF-7, group 1 (concentration), fraction, single experiments
# [8] = MCF-7, group 1 (concentration), single experiments
# [9] = MCF-7, group 2 (concentration), fraction, single experiments
# [10] = MCF-7, group 2 (concentration), single experiments
# [11] = MCF-7, group 4 (concentration), fraction, single experiments
# [12] = MCF-7, group 4 (concentration), single experiments
# [13] = MCF-7, group 8 (concentration), fraction, single experiments
# [14] = MCF-7, group 8 (concentration), single experiments
# [15] = MCF-7, group 16 (concentration), fraction, single experiments
# [16] = MCF-7, group 16 (concentration), single experiments
# [17] = MCF-7, group 32 (concentration), fraction, single experiments
# [18] = MCF-7, group 32 (concentration), single experiments
# [19] = MCF-7, one of three experiments, unit inferred, read-out: IC50, single experiment, MCF-7
# [20] = MCF-7, fraction, per experiment
# [21] = given as fraction, second of three experiments
# [22] = given as fraction, third of three experiments
smiles,measurement,setting,value
COc1c2n(cc(C(=O)Nc3cccc(-c4cn(-c5cc(C(F)(F)F)cc(C(F)(F)F)c5)nn4)c3)c1=O)C[C@H]1OC[C@H](C)N1C2=O [KJ-5],Migration of HepG2 cells (transwell without Matrigel),HepG2 cells [1],significantly impaired
same,IC50,MCF-7 cells; [5],8.41 ± 0.14 µM
same,IC50,MCF-7 cells; [6],8.56 µM
same,inhibition at 16 µM,"MCF-7 cells; Homo sapiens, unit inferred",62.6 ± 1.76%
same,Inhibitory rate,MCF-7 cells; [7],0.147 and 0.1313 and 0.1401
same,ODtreated/ODcontrol,MCF-7 cells; [8],0.853 and 0.8687 and 0.8599
same,Inhibitory rate,MCF-7 cells; [9],0.1769 and 0.1986 and 0.2186
same,ODtreated/ODcontrol,MCF-7 cells; [10],0.8231 and 0.8014 and 0.7814
same,Inhibitory rate,MCF-7 cells; [11],0.4303 and 0.4175 and 0.4002
same,ODtreated/ODcontrol,MCF-7 cells; [12],0.5697 and 0.5825 and 0.5998
same,Inhibitory rate,MCF-7 cells; [13],0.509 and 0.5265 and 0.5019
same,ODtreated/ODcontrol,MCF-7 cells; [14],0.491 and 0.4735 and 0.4981
same,Inhibitory rate,MCF-7 cells; [15],0.5958 and 0.5893 and 0.6098
same,ODtreated/ODcontrol,MCF-7 cells; [16],0.4042 and 0.4107 and 0.3902
same,Inhibitory rate,MCF-7 cells; [17],0.7196 and 0.7385 and 0.7334
same,ODtreated/ODcontrol,MCF-7 cells; [18],0.2804 and 0.2615 and 0.2666
same,IC50,MCF-7 cells; [19],8.29 µM and 8.37 µM
same,Inhibitory rate,MCF-7 cells; [20],0.6368
same,ODtreated/ODcontrol,MCF-7 cells; [20],0.3632
same,Inhibitory rate,MCF-7 cells; [21],0.6364
same,Inhibition rate,MCF-7 cells; [22],0.6061
same,ODtreated/ODcontrol,MCF-7 cells; second of three experiments,0.3635
same,ODtreated/ODcontrol,MCF-7 cells; third of three experiments,0.3939
same,Percentage of cells in the G1 phase,"HepG2 cells [2]; HepG2, 2 μM",21.2%
same,Percentage of cells in the G2/M phase,"HepG2 cells [2]; HepG2, 2 μM",50.4%
same,Percentage of cells in the G1 phase,"HepG2 cells [2]; HepG2, 4 μM",15%
same,Percentage of cells in the G2/M phase,"HepG2 cells [2]; HepG2, 4 μM",58.3%
same,Percentage of cells in the G1 phase,"HepG2 cells [2]; HepG2, 8 μM",13.5%
same,Percentage of cells in the G2/M phase,"HepG2 cells [2]; HepG2, 8 μM",62.6%
same,Percentage of cells in the S phase (change vs control),HepG2 cells [2],did not change significantly
same,Expression of p-H2AX (DNA damage marker),p-H2AX in HepG2 cells,increased the expression of p-H2AX
same,Invasion of HepG2 cells (transwell with Matrigel),HepG2 cells [3],significantly impaired
same,Proportion of apoptotic cells,"HepG2 cells [4]; HepG2, 2 μM",21.8 ± 1.3%
same,Proportion of apoptotic cells,"HepG2 cells [4]; HepG2, 4 μM",30.9 ± 1.4%
same,Proportion of apoptotic cells,"HepG2 cells [4]; HepG2, 8 μM",52.7 ± 1.7%
same,Cell apoptosis (in words),HepG2 cells [4],significantly caused cell apoptosis in a concentration-dependent manner
COc1c2n(cc(C(=O)Nc3cccc(-c4cn(-c5c(C)cc(C)cc5C)nn4)c3)c1=O)C[C@H]1OC[C@H](C)N1C2=O [KJ-12],Migration of HepG2 cells (transwell without Matrigel),HepG2 cells [1],significantly impaired
same,IC50,MCF-7 cells; [5],8.55 ± 0.6 µM
same,IC50,MCF-7 cells; [6],9.23 µM
same,inhibition at 16 µM,"MCF-7 cells; Homo sapiens, unit inferred",54.7 ± 1.79%
same,Inhibitory rate,MCF-7 cells; [7],0.2053 and 0.2025 and 0.1943
same,ODtreated/ODcontrol,MCF-7 cells; [8],0.7947 and 0.7975 and 0.8057
same,Inhibitory rate,MCF-7 cells; [9],0.2385 and 0.2481 and 0.2879
same,ODtreated/ODcontrol,MCF-7 cells; [10],0.7615 and 0.7519 and 0.7121
same,Inhibitory rate,MCF-7 cells; [11],0.3137 and 0.3313 and 0.3802
same,ODtreated/ODcontrol,MCF-7 cells; [12],0.6863 and 0.6687 and 0.6198
same,Inhibitory rate,MCF-7 cells; [13],0.4877 and 0.4713 and 0.472
same,ODtreated/ODcontrol,MCF-7 cells; [14],0.5123 and 0.5287 and 0.528
same,Inhibitory rate,MCF-7 cells; [15],0.5949 and 0.6244 and 0.5636
same,ODtreated/ODcontrol,MCF-7 cells; [16],0.4051 and 0.3756 and 0.4364
same,Inhibitory rate,MCF-7 cells; [17],0.7215 and 0.7706 and 0.7971
same,ODtreated/ODcontrol,MCF-7 cells; [18],0.2785 and 0.2294 and 0.2029
same,IC50,MCF-7 cells; [19],8.35 µM and 8.08 µM
same,Inhibitory rate,MCF-7 cells; [20],0.5407
same,ODtreated/ODcontrol,MCF-7 cells; [20],0.4593
same,Inhibitory rate,MCF-7 cells; [21],0.5326
same,Inhibition rate,MCF-7 cells; [22],0.5669
same,ODtreated/ODcontrol,MCF-7 cells; second of three experiments,0.4674
same,ODtreated/ODcontrol,MCF-7 cells; third of three experiments,0.4331
same,Percentage of cells in the G1 phase,"HepG2 cells [2]; HepG2, 2 μM",47.4%
same,Percentage of cells in the G2/M phase,"HepG2 cells [2]; HepG2, 2 μM",22.2%
same,Percentage of cells in the G1 phase,"HepG2 cells [2]; HepG2, 4 μM",25%
same,Percentage of cells in the G2/M phase,"HepG2 cells [2]; HepG2, 4 μM",47.5%
same,Percentage of cells in the G1 phase,"HepG2 cells [2]; HepG2, 8 μM",16.4%
same,Percentage of cells in the G2/M phase,"HepG2 cells [2]; HepG2, 8 μM",59.7%
same,Percentage of cells in the S phase (change vs control),HepG2 cells [2],remained unchanged substantially
same,Expression of p-H2AX (DNA damage marker),p-H2AX in HepG2 cells,increased the expression of p-H2AX
same,Invasion of HepG2 cells (transwell with Matrigel),HepG2 cells [3],significantly impaired
same,Proportion of apoptotic cells,"HepG2 cells [4]; HepG2, 2 μM",21.2 ± 1.4%
same,Proportion of apoptotic cells,"HepG2 cells [4]; HepG2, 4 μM",30.5 ± 1.1%
same,Proportion of apoptotic cells,"HepG2 cells [4]; HepG2, 8 μM",44.4 ± 1.9%
same,Cell apoptosis (in words),HepG2 cells [4],significantly caused cell apoptosis in a concentration-dependent manner

# From article PMC10590056, “Design and synthesis of cabotegravir derivatives bearing 1,2,3-triazole and evaluation of anti-liver cancer activity” (Frontiers in Pharmacology, 2023)
